Results taken from the supplement of paper PMC10307832.

Experiments:
Test in all cases: relative viability (nuclei count vs DMSO), 5 days (fraction); higher = more cells survive
Serdemetan + Palbociclib = compound: c1ccc2c(CCNc3ccc(Nc4ccncc4)cc3)c[nH]c2c1 [Serdemetan] + CC(=O)c1c(C)c2cnc(Nc3ccc(N4CCNCC4)cn3)nc2n(C2CCCC2)c1=O [Palbociclib] (partner 0.5 µM)
Method in brief: (§1)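 The day after seeding in 1536-well plates, lung cancer cell lines were treated by pin tool with a single drug, or with a fixed anchor-drug dose together with five library-drug doses (not always all listed) in √10 steps. After 5 days, a combined fix-and-stain solution (final 0.05% Triton X-100, 1% formaldehyde, 1 ug/ml Hoechst) was added. Nuclei counted on 4× images gave relative viability as treated counts over vehicle counts, reported as the median of duplicate plates.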

Selisistat + Linsitinib = compound: C1CC(C2=C(C1)C3=C(N2)C=CC(=C3)Cl)C(=O)N [Selisistat] + C[C@]1(O)C[C@@H](c2nc(-c3ccc4ccc(-c5ccccc5)nc4c3)c3c(N)nccn32)C1 [Linsitinib] (partner 1 µM)
Method in brief: as §1

Serdemetan + Dasatinib = compound: c1ccc2c(CCNc3ccc(Nc4ccncc4)cc3)c[nH]c2c1 [Serdemetan] + Cc1nc(Nc2ncc(C(=O)Nc3c(C)cccc3Cl)s2)cc(N2CCN(CCO)CC2)n1 [Dasatinib] (partner 0.075 µM)
Method in brief: as §1

Selisistat + Bortezomib = compound: C1CC(C2=C(C1)C3=C(N2)C=CC(=C3)Cl)C(=O)N [Selisistat] + CC(C)C[C@H](NC(=O)[C@H](Cc1ccccc1)NC(=O)c1cnccn1)B(O)O [Bortezomib] (partner 0.002 µM)
Method in brief: as §1

Cell Line | relative viability (Serdemetan + Palbociclib; first compound 0.04 µM) | relative viability (Serdemetan + Palbociclib; first compound 0.1265 µM) | relative viability (Serdemetan + Palbociclib; first compound 0.4 µM) | relative viability (Serdemetan + Palbociclib; first compound 1.265 µM) | relative viability (Serdemetan + Palbociclib; first compound 4 µM) | relative viability (Selisistat + Linsitinib; first compound 0.4 µM) | relative viability (Selisistat + Linsitinib; first compound 1.265 µM) | relative viability (Selisistat + Linsitinib; first compound 4 µM) | relative viability (Selisistat + Linsitinib; first compound 12.65 µM) | relative viability (Selisistat + Linsitinib; first compound 40 µM) | relative viability (Serdemetan + Dasatinib; first compound 0.04 µM) | relative viability (Serdemetan + Dasatinib; first compound 0.1265 µM) | relative viability (Serdemetan + Dasatinib; first compound 0.4 µM) | relative viability (Serdemetan + Dasatinib; first compound 1.265 µM) | relative viability (Serdemetan + Dasatinib; first compound 4 µM) | relative viability (Selisistat + Bortezomib; first compound 0.4 µM) | relative viability (Selisistat + Bortezomib; first compound 1.265 µM) | relative viability (Selisistat + Bortezomib; first compound 4 µM) | relative viability (Selisistat + Bortezomib; first compound 12.65 µM) | relative viability (Selisistat + Bortezomib; first compound 40 µM)
LCLC-103H | 0.479 | 0.474 | 0.453 | 0.389 | 0.419 | 1.13 | 1.15 | 1.07 | 1.03 | 1.01 | 0.466 | 0.434 | 0.539 | 0.331 | 0.482 | 1.15 | 1.03 | 0.979 | 1.14 | 1.09
LOU-NH91 | 0.518 | 0.515 | – | – | 0.563 | 0.999 | 0.95 | 0.848 | 1.08 | 0.937 | 0.564 | 0.554 | 0.371 | 0.43 | 0.565 | 0.499 | 0.505 | 0.448 | 0.511 | 0.515
LU99A | 0.431 | 0.371 | 0.308 | 0.203 | 0.22 | 0.537 | 0.608 | 0.657 | 0.516 | 0.485 | 0.545 | 0.515 | 0.592 | 0.217 | 0.232 | 1.17 | 1.15 | 1.33 | 1.16 | 1.11
LXF-289 | 0.544 | 0.542 | 0.527 | 0.524 | 0.381 | 0.995 | 0.954 | 0.895 | 0.913 | 1.01 | 0.231 | 0.197 | 0.199 | 0.202 | 0.185 | 1.02 | 1.05 | 0.832 | 0.937 | 0.984
NCI-H23 | 0.474 | 0.472 | 0.461 | – | 0.437 | 0.631 | 0.466 | – | 0.579 | 0.6 | 0.734 | 0.877 | 0.794 | 0.548 | 0.914 | 1.02 | 1.11 | – | 1.1 | 1.08
NCI-H322M | 0.491 | 0.488 | 0.474 | 0.327 | 0.463 | 1 | 1.03 | – | 0.959 | 0.976 | 0.266 | 0.24 | 0.248 | 0.214 | 0.272 | 1.36 | 1.25 | – | 1.42 | 1.39
NCI-H441 | 0.206 | 0.212 | 0.18 | 0.147 | 0.225 | 0.648 | 0.639 | 0.502 | 0.448 | 0.554 | 0.69 | 0.649 | 0.516 | 0.585 | 0.435 | 0.74 | 0.588 | – | 0.467 | 0.482
NCI-H460 | 0.166 | 0.175 | 0.0992 | 0.0798 | 0.0544 | 0.848 | 0.663 | – | 0.821 | 0.824 | 0.616 | 0.545 | 0.47 | 0.258 | 0.141 | 1.04 | 1.14 | – | 1.02 | 1.12
NCI-H520 | 0.261 | 0.215 | 0.252 | 0.179 | 0.193 | 0.823 | 0.954 | 0.982 | 0.967 | 0.969 | 0.244 | 0.182 | 0.223 | – | 0.198 | 0.525 | 0.495 | 0.619 | 0.648 | 0.738
NCI-H647 | 0.374 | 0.332 | 0.528 | 0.322 | 0.243 | 1.15 | 1.12 | – | 1.07 | 1.26 | 0.217 | 0.153 | 0.156 | 0.184 | 0.167 | 0.95 | 0.987 | – | 0.885 | 1.16
NCI-H650 | 0.332 | 0.365 | 0.344 | 0.282 | 0.287 | 0.824 | – | 0.987 | 0.72 | 1.01 | 0.424 | 0.449 | 0.451 | 0.35 | 0.43 | 0.832 | – | 0.868 | 0.636 | 1.08
NCI-H661 | 0.387 | 0.416 | 0.411 | 0.382 | 0.393 | 0.596 | 0.609 | 0.52 | 0.488 | 0.588 | 0.856 | 0.916 | 0.849 | – | 0.564 | 0.858 | 0.816 | 0.664 | 0.701 | 0.704
NCI-H727 | 0.351 | 0.638 | 0.604 | 0.722 | 0.644 | 0.297 | 0.292 | – | – | 0.395 | 0.36 | 0.42 | 0.445 | 0.251 | 0.25 | 1.01 | 0.623 | – | – | 0.864
NCI-H838 | 0.212 | 0.221 | 0.243 | 0.232 | 0.23 | 1.06 | 1.06 | 1.03 | 1.06 | 1.06 | 0.291 | 0.345 | 0.272 | 0.276 | 0.273 | 0.803 | 0.73 | 0.603 | 0.878 | 1.01
NCI-H1355 | 0.381 | 0.381 | 0.366 | 0.371 | 0.366 | 0.903 | 0.838 | – | 0.974 | 0.996 | 0.78 | 0.759 | 0.601 | 0.602 | 0.76 | 1.18 | 1.21 | – | 1.13 | 1.35
NCI-H1437 | 0.289 | 0.32 | 0.334 | 0.359 | 0.315 | 1.11 | 0.981 | 1.09 | 0.986 | 0.89 | 0.347 | 0.352 | 0.388 | 0.274 | 0.289 | 0.575 | 0.451 | 0.378 | 0.431 | 0.515
NCI-H1651 | 0.51 | 0.499 | 0.523 | 0.358 | 0.29 | 0.936 | 0.898 | 1.02 | 1.05 | 0.849 | 0.296 | 0.319 | 0.281 | 0.237 | 0.186 | 1.02 | 0.939 | 0.868 | 0.874 | 0.847
